Assay [1] addresses Tyrosine-protein kinase receptor UFO (Homo sapiens) (UniProt P30530). Kind of assay: Inhibition of AXL (unknown origin) at 0.5 uM relative to control.
For assay [2], the target named is Platelet-derived growth factor receptor beta (Homo sapiens) (UniProt P09619). Kind of assay: Inhibition of PDGFR-beta (unknown origin) at 0.5 uM relative to control.
In assay [3] the target is Macrophage colony-stimulating factor 1 receptor (Homo sapiens) (UniProt P07333). Kind of assay: Inhibition of FMS (unknown origin) at 0.5 uM relative to control.
Assay [4] deals with Vascular endothelial growth factor receptor 2 (Homo sapiens) (UniProt P35968). Kind of assay: Inhibition of KDR (unknown origin) at 0.5 uM relative to control.
Assay [5] has as its target Ephrin type-A receptor 4 (Homo sapiens) (UniProt P54764). The assay can be described thus: Inhibition of EPHA4 (unknown origin) at 0.5 uM relative to control.
The target in assay [6] is T1, Tyrosine-protein kinase Mer (Homo sapiens) (UniProt Q12866).
T1 sequence (whole entry): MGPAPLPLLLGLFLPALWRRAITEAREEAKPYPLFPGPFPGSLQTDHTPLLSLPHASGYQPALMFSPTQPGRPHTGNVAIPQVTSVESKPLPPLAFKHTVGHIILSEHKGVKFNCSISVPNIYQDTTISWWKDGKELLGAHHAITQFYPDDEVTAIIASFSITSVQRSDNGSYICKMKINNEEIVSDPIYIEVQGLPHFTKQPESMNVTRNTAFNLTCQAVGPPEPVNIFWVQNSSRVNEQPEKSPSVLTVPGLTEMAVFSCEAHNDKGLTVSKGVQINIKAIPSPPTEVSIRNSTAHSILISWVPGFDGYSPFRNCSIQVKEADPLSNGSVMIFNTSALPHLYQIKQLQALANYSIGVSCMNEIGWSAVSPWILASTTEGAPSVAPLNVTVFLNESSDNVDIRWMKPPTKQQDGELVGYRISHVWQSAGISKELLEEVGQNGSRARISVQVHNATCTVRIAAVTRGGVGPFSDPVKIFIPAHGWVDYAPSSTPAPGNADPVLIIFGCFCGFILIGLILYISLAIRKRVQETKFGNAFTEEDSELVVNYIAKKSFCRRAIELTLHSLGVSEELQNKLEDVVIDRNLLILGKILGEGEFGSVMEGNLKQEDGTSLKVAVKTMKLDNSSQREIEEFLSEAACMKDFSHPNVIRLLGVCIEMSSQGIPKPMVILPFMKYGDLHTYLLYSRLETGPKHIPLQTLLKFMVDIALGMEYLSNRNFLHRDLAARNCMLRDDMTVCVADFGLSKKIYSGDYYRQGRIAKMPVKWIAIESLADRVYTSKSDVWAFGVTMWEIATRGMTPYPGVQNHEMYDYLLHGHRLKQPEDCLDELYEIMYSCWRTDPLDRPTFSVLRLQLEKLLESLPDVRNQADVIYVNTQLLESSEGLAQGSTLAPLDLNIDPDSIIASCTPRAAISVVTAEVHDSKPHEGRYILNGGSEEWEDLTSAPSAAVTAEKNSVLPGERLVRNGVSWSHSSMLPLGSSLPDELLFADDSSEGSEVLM
Kind of assay: Inhibition of MER (unknown origin) at 0.5 uM relative to control.

Assay [7] addresses Ephrin type-A receptor 5 (Homo sapiens) (UniProt P54756). The assay can be described thus: Inhibition of EPH-A5 (unknown origin) at 0.5 uM relative to control.
Assay [8] deals with T2, Ephrin type-A receptor 8 (Homo sapiens) (UniProt P29322).
T2 sequence (whole entry): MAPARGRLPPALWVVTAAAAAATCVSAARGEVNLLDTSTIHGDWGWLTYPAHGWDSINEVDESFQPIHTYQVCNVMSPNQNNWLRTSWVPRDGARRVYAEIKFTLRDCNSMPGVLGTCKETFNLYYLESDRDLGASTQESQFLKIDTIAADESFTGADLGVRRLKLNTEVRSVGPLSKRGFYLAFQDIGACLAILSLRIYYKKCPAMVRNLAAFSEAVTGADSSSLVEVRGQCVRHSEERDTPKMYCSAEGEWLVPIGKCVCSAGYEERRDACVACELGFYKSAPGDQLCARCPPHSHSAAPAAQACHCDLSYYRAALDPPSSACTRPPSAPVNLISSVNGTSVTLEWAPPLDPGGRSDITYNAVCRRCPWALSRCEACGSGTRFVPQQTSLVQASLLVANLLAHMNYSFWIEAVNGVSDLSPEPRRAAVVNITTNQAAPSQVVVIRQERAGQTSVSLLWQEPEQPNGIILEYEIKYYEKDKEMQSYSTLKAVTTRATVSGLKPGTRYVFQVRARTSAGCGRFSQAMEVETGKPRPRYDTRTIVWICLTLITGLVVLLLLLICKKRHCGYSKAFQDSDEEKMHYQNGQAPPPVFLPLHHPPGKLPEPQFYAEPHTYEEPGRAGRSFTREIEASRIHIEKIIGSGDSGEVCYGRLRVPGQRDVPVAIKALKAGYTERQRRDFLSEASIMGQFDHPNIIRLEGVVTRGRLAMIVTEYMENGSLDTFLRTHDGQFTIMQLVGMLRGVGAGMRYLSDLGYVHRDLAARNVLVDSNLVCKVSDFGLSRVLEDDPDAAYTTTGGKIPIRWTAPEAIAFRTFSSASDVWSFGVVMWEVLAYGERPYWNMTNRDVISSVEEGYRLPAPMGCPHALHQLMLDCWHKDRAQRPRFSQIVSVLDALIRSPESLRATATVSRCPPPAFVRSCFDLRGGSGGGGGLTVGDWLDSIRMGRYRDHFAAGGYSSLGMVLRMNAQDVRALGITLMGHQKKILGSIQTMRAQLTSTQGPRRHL
Kind of assay: Inhibition of EPHA8 (unknown origin) at 0.5 uM relative to control.

In assay [9] the target is RAF proto-oncogene serine/threonine-protein kinase (Homo sapiens) (UniProt P04049). The assay can be described thus: Inhibition of CRAF (unknown origin) at 0.5 uM relative to control.
Assay [10] concerns the target Homeodomain-interacting protein kinase 2 (Homo sapiens) (UniProt Q9H2X6). The assay can be described thus: Inhibition of HIPK2 (unknown origin) assessed as effect on HIPK2 protein level by Western blotting analysis.
For assay [11], the target named is Homeodomain-interacting protein kinase 3 (Homo sapiens) (UniProt Q9H422). The assay can be described thus: Inhibition of HIPK3 (unknown origin) assessed as effect on HIPK3 protein level by Western blotting analysis.
Assay [12] has as its system MDA-MB-231. Kind of assay: Inhibition of cell migration in human MDA-MB-231 cells. It is filed as functional, cell-based.
Assay [13] has as its system MDA-MB-231. Kind of assay: Inhibition of HIPK4 protein expression in human MDA-MB-231 cells by Western blotting analysis. It is filed as functional, cell-based. (Immunoblotting shows a protein as a band on a membrane.)
The subject of assay [14] is MDA-MB-231. The assay can be described thus: Inhibition of FAK/pFAK protein expression in human MDA-MB-231 cells by Western blotting analysis. It is filed as functional, cell-based.
Assay [15] concerns the target Receptor-interacting serine/threonine-protein kinase 2 (Homo sapiens) (UniProt O43353). Kind of assay: Inhibition of RIPK2 (unknown origin) at 0.5 uM relative to control.
Assay [16] addresses Ephrin type-A receptor 7 (Homo sapiens) (UniProt Q15375). The assay can be described thus: Inhibition of EPHA7 (unknown origin) at 0.5 uM relative to control.

Activity calls are given as the source filed them. The calls are words filed in the database; no cut-off is given here.

Tyrosine-protein kinase receptor UFO (Homo sapiens), sequence (P30530 whole entry): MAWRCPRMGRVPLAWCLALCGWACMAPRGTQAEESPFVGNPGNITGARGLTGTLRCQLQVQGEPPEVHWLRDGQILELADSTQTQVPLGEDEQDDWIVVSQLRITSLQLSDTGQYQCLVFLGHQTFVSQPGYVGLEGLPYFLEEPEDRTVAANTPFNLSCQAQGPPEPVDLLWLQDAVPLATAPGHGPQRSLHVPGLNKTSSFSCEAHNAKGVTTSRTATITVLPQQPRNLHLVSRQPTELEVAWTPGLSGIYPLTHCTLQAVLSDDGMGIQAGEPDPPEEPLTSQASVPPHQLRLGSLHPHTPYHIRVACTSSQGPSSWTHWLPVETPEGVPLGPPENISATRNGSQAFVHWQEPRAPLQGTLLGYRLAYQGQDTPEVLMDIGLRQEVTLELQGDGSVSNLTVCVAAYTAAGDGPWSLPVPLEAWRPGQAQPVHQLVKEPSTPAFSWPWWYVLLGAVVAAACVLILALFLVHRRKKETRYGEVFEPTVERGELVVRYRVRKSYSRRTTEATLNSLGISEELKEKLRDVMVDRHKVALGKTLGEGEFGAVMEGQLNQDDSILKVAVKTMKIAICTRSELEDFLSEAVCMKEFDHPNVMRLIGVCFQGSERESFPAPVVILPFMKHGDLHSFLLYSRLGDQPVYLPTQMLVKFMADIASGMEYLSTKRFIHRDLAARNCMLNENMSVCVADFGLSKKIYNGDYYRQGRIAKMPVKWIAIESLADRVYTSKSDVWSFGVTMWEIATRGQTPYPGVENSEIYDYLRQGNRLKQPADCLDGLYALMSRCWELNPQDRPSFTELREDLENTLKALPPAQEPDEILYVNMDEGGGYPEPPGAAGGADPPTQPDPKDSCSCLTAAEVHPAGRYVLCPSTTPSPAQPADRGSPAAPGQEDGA
Ephrin type-A receptor 7 (Homo sapiens), sequence (Q15375 28-998 limits assumed): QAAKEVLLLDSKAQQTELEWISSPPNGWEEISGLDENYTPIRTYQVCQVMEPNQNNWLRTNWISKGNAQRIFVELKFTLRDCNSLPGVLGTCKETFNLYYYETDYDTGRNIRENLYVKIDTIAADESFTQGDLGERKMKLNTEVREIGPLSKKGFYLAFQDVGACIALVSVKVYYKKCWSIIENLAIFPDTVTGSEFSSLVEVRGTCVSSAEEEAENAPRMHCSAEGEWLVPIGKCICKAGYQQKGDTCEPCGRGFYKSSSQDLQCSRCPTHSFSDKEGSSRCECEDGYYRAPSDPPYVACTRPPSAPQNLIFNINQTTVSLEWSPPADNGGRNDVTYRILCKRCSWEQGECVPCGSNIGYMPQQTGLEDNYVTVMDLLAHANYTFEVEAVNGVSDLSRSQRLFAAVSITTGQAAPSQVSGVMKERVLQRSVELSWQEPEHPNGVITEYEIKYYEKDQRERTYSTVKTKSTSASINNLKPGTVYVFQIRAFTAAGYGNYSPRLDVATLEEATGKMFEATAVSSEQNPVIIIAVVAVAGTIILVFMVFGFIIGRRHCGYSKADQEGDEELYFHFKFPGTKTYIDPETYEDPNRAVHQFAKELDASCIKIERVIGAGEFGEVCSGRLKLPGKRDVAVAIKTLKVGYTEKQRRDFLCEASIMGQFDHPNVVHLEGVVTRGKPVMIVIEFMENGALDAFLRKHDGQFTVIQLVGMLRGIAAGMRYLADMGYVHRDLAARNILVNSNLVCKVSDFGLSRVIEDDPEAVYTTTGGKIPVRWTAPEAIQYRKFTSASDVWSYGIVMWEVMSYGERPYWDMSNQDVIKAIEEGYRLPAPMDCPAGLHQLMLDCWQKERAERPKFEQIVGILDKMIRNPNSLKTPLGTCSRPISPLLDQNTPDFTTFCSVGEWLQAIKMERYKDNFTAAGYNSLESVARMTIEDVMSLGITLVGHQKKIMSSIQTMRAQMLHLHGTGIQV
Platelet-derived growth factor receptor beta (Homo sapiens), sequence (P09619 whole entry): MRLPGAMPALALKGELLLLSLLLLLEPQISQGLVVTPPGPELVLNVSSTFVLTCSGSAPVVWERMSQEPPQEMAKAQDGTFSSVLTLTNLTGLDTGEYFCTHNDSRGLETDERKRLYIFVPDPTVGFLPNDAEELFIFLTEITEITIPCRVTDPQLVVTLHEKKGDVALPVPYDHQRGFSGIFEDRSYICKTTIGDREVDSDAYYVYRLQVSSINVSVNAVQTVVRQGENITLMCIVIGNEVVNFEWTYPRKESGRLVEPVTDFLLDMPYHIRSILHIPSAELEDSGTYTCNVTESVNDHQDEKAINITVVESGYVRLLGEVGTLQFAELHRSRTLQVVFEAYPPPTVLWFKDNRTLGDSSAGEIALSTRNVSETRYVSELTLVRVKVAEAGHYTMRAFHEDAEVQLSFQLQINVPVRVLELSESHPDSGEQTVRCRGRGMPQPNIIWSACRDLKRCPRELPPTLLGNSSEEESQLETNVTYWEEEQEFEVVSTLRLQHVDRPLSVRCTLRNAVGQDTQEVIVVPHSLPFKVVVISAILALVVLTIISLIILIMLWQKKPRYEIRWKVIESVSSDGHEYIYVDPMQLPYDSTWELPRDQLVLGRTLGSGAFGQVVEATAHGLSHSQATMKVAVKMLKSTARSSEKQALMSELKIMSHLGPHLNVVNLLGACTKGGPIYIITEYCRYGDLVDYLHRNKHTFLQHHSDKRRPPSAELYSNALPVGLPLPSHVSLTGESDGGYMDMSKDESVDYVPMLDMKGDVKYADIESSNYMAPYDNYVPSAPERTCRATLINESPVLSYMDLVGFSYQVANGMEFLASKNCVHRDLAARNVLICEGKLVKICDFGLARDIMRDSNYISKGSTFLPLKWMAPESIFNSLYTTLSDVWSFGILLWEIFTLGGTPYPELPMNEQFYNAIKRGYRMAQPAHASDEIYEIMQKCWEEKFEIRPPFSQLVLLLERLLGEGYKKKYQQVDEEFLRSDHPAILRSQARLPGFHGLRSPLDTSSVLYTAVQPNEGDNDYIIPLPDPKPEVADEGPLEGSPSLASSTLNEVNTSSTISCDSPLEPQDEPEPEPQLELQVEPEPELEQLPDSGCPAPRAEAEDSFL
RAF proto-oncogene serine/threonine-protein kinase (Homo sapiens), sequence (P04049 whole entry): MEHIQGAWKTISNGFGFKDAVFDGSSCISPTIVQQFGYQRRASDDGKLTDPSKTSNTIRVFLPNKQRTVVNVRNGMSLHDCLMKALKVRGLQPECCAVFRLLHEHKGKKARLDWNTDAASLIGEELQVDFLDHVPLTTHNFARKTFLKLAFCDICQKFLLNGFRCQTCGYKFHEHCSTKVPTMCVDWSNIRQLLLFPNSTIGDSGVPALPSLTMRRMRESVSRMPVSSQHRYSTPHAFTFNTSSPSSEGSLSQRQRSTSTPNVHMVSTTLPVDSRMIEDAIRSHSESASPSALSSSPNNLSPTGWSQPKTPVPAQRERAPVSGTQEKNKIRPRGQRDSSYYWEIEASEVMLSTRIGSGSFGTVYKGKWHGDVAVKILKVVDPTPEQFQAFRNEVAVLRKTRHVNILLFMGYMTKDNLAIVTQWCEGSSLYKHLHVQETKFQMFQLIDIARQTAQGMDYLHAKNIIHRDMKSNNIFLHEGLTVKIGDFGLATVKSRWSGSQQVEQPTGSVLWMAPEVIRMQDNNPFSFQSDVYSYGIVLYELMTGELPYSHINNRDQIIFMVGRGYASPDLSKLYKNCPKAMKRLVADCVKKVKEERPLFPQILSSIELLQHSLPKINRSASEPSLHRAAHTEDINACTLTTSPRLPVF
Macrophage colony-stimulating factor 1 receptor (Homo sapiens), sequence (P07333 whole entry): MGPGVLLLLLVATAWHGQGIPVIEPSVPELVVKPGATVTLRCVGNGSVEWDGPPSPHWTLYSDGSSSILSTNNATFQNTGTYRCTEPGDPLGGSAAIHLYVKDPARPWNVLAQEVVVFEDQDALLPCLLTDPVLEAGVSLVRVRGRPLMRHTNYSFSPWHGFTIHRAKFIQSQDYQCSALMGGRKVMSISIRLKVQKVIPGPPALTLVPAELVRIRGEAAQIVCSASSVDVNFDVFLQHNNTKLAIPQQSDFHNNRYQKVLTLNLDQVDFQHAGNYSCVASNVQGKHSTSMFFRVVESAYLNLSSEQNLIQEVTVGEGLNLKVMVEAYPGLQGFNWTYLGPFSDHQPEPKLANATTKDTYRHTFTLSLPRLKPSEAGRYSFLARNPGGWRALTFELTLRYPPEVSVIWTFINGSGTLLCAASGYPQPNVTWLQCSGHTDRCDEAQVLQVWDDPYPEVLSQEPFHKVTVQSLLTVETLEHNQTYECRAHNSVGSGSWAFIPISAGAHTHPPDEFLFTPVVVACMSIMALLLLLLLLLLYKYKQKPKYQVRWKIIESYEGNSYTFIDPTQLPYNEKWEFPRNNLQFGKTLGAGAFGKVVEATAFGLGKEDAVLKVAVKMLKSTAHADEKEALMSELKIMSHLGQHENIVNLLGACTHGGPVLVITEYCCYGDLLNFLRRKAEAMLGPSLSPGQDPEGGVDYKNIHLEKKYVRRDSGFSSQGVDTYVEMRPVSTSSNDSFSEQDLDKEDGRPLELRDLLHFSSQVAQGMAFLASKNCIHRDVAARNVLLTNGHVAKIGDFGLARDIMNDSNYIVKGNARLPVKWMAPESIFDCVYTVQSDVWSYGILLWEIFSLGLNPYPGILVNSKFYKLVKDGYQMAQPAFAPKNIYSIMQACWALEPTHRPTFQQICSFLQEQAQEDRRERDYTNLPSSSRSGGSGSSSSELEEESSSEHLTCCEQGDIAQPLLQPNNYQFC

For the compound `CNC(=O)c1cc(Oc2ccc(NC(=O)c3nc(SC)n(CCN(C)C)c3-c3ccc(F)cc3)cc2)ccn1`, the inhibition is 64% in assay [1], 70% in assay [2] and 65% in [3].

`CNC(=O)c1cc(Oc2ccc(NC(=O)c3nc(S(C)(=O)=O)sc3-c3ccc(F)cc3)cc2)ccn1`: the inhibition is 27% in assay [4]; 18% in assay [5]; 60% in [6]; 83% in assay [1]; 21% in [7]; 54% in [8]. The inhibition in assay [3] is 39%; in [9], 11%. Moreover, the outcome in [10] and in assay [11] was inactive. The inhibition result in the assay with MDA-MB-231 [12], in the assay with MDA-MB-231 [13] and in the assay with MDA-MB-231 [14] was “Active” each time.

`CNC(=O)c1cc(Oc2ccc(NC(=O)c3nc(SC)oc3-c3ccc(F)cc3)cc2F)ccn1`: the inhibition in assay [5] stood at 38%; in assay [6], 41%; in [15] it was 51%; in assay [2] it was 40%; in assay [16], 53%.

On to `CNC(=O)c1cc(Oc2ccc(NC(=O)c3nc(C(F)(F)F)sc3-c3ccc(F)cc3)cc2)ccn1`, for which the inhibition in assay [4] is 53%; in assay [6], 49%; in [1], 52%; in assay [3], 43%.

In turn, `CSc1nc(C(=O)Nc2ccc(Oc3cc4cnn(C)c4cc3Br)cc2)c(-c2ccc(F)cc2)o1` showed an inhibition in assay [16] of 22%.

For the compound `CNC(=O)c1cc(Oc2ccc(NC(=O)c3nc(SC)[nH]c3-c3ccc(F)cc3)cc2)ccn1`, the inhibition in assay [4] was 95%; in [5], 92%; in assay [6], 91%; in assay [1] it was 91%; in [7], 85%. The result in assay [10] and in assay [11] was inactive. In addition, the inhibition entry with MDA-MB-231 [12], in the assay with MDA-MB-231 [13] and with MDA-MB-231 [14] was “Active” each time.

As to `CNC(=O)c1cc(Oc2ccc(NC(=O)c3n[nH]nc3-c3ccc(F)cc3)cc2)ccn1`, the inhibition was found to be 25% in assay [4]; 65% in [15]; 60% in [2]; 51% in [8]; 47% in assay [3]; 57% in [9].

In the case of `CNC(=O)c1cc(Oc2ccc(NC(=O)c3nc(NC)sc3-c3ccc(F)cc3)cc2)ccn1`, the inhibition in [7] was 50%; in assay [15], 40%; in assay [2], 61%; in assay [16], 60%; in [9] it was 63%.

In the case of `CNC(=O)c1cc(Oc2ccc(NC(=O)c3nc(SC)oc3-c3ccc(F)cc3)cc2)ccn1`, the inhibition in [6] came out at 55%; in assay [15], 63%; in assay [2] it was 55%; in assay [8], 54%; in assay [16] it was 41%. For the same compound, the outcome in assay [10] and in assay [11] was inactive. For the same compound, the inhibition result with MDA-MB-231 [12], with MDA-MB-231 [13] and in the assay on MDA-MB-231 [14] was “Active” throughout.

What is called inhibition is the relative decrease from the control value, in per cent.

(Values after ChEMBL document CHEMBL4806968, “Hipk inhibitors and methods of use thereof” (2020).)
